Measurements published in patent US20110144353A1, “5-HYDROXY-4-AMINOMETHYL-1-C[…] (CYCLOHEPTYL)--3-ALKO[…] DERIVATIVES, PHARMA[…] SALTS THEREOF AND A METHOD FOR THE PRODUCTION THEREOF” (OBSCHESTVO S ORGANICHENNOY OTVETSTVENNOSTJU <<BINATEKH>>, priority 2008, published 2011).
≈ marks a conversion by molar mass, not a printed value.

Key:
[1] = test system: Influenza A/New Caledonia/20/99 (H1N1) Virus; test: microbe, parasite or virus in culture; format: cell-based; settings: for MIC50: Influenza A virus, H1N1, MDCK cells, concentration decreasing OD by 50%, solvent alcohol
[2] = test system: influenza A/Aichi/2/69 (H3N2) virus; test: Murine influenza pneumonia model; format: in vivo, mice; settings: for Mean Life Span / Mortality / Survival rate: mice infected with 10 LD50; for Mortality reduction: versus virus control
Experimental: Determination of the efficacy of the compounds in the murine influenza pneumonia model.
The experiments were carried out on 60 white mice weighing 12-15 g. The animals were infected intranasally under light ether anesthesia with the influenza A/Aichi/2/69 (H3N2) virus (10 LD50). The compounds to be tested were administered per os in a dose of 60 or 15 mg/kg/day. The treatment was carried out according to the following scheme: 24 hours and 1 hour before infection, and then 2 times a day (at 8 o'clock in the morning and 8 o'clock in the evening) for 5 days. The chemotherapeutic activity of Arbidol and compound A in the murine influenza pneumonia model was assessed according to two criteria: the index of protection against fatal viral infection and the increase in mean life span of the treated animals as compared with the control group. The mean life span of the mice was calculated according to the following formula: Σf(d−1)/n, where f is the number of mice dying on day d (the surviving mice were also included in f; d in this case=16); n is the number of mice in the group.

For `CCOC(=O)c1c(CSc2ccccc2)n(C)c2cc(Br)c(O)c(CN(C)C)c12` [Arbidol, 1-methyl-2-phenylthiomethyl-3-carbethoxy-4-dimethylaminomethyl-5-oxy-6-bromindol], the “Activity at 10 μg/mL” value [1] was 89.5%, the MIC50 [1] was 6 µg/mL (≈ 12.6 µM) and the “Mean Life Span” value ([2]; 15 mg/kg/day per os) was 7.3 days. The Mortality ([2]; 15 mg/kg/day per os) was 70%, the Survival rate ([2]; 15 mg/kg/day per os) was 3/10 and the Mortality reduction ([2]; 15 mg/kg/day per os) was 20%. For the same compound, the “Mean Life Span” value ([2]; 60 mg/kg/day per os) was 10.8 days, the Mortality ([2]; 60 mg/kg/day per os) was 40% and the Survival rate ([2]; 60 mg/kg/day per os) was 6/10. It also gave a Mortality reduction ([2]; 60 mg/kg/day per os) of 50%.
With `CCOC(=O)c1c(C)n(C2CCCCC2)c2ccc(O)c(CN(C)C)c12` [Compound A, 5-hydroxy-4-dimethylaminomethyl-2-methyl-1-cyclohexyl-3-ethoxycarbonyl indole] the “Activity at 10 μg/mL” value [1] was 96.5%, the MIC50 [1] was 5.4 µg/mL (≈ 15.1 µM) and the “Activity in in vitro experiments compared with Arbidol” value ([1]; summary of Table 1) was “somewhat more active than Arbidol”. For the same compound, the “Efficacy in animal experiments” value ([2]; 15 mg/kg/day) was “equal to the efficacy of Arbidol at a dose 4 times higher”, the “Mean Life Span” value ([2]; 15 mg/kg/day per os) was 11.5 days and the Mortality ([2]; 15 mg/kg/day per os) was 40%. The Survival rate ([2]; 15 mg/kg/day per os) was 5/8, the Mortality reduction ([2]; 15 mg/kg/day per os) was 50% and the “Activity in animal experiments compared with Arbidol” value ([2]; summary of Table 2) was “significantly more active than Arbidol”.
